In article PMC4231100, “Cerebral Artery Alpha-1 AR Subtypes: High Altitude Long-Term Acclimatization Responses” (PLoS ONE, 2014):
Structures can show the parent of a compound that is named as a salt.

How the values were obtained:
α1A-AR = biological target: T1, α1A-AR (Ovis aries, UniProt A0ACI6NWI5); experiment: functional antagonism (KB) of phenylephrine-induced contraction in isolated arteries
T1 construct: gene ADRA1A
T1 sequence (A0ACI6NWI5 1-466): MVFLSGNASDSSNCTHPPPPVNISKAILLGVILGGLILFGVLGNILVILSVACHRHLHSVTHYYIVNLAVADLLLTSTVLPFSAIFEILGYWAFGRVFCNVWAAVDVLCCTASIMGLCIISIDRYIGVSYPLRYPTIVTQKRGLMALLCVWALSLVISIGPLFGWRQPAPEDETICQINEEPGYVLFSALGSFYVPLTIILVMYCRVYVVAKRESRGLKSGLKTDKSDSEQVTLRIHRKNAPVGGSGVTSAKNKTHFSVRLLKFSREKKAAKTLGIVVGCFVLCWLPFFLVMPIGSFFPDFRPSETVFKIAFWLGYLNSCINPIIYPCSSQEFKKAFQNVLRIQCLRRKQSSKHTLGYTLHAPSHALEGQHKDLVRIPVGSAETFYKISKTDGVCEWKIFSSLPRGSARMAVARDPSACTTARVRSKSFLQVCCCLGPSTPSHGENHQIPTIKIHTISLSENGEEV

α1D-AR = biological target: T2, α1D-AR (Ovis aries, UniProt A0ACI6RHM3); experiment: as above
T2 construct: gene ADRA1D
T2 sequence (A0ACI6RHM3 1-564): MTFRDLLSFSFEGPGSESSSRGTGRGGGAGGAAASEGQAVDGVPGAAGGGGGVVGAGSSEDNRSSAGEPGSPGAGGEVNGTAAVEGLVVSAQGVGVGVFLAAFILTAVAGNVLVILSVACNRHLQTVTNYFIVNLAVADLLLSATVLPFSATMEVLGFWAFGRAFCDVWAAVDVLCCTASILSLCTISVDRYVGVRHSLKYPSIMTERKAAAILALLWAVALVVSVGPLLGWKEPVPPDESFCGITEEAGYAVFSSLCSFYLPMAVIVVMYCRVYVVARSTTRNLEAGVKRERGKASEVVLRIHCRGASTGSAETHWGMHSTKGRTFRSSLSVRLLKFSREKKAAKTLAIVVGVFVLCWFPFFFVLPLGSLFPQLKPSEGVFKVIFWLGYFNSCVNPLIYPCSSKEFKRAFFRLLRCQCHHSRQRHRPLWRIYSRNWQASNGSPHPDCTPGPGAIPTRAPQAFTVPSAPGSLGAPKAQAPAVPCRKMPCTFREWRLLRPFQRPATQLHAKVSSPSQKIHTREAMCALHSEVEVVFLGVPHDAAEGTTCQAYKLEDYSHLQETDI

Row | Kb (α1A-AR) | Kb (α1D-AR) | SMILES
1 | 11 nM | – | COc1cccc(OC)c1OCCNCC1COc2ccccc2O1 (centres unmarked) [WB, 2-([2,6-Dimethoxyphenoxyethyl]a-minomethyl)-1,4-benzodioxane hydrochloride]
2 | – | 6.7 nM | COc1ccccc1N1CCN(CCN2C(=O)CC3(CCCC3)CC2=O)CC1 [BMY, 8-(2-[4-(2-Methoxyphenyl)-1-piperazinyl]ethyl)-8-azaspiro(4.5)decane-7,9-dione]
